Experimental data: patent US5639787A, “Therapeutic method for the treatment of cancer” (priority 1995, dated 1997)
Like-named read-outs stand apart in the source and are kept apart here.

Tests used:
[1] = humans; cited from earlier work
clinical [2] = details: human, in vivo
Text: It is known that ascorbic acid and salts thereof have shown a cytotoxic effect when administered in vitro to tumor cell lines. […] The cytotoxic effect of ascorbic acid is understood to relate to the increased production of intracellular hydrogen peroxide, which is more toxic to tumor cells due to the lower levels of catalase typically present in tumor cells as compared to normal cells. Although some cancers may respond to lower levels, the concentration level of ascorbic acid required for in vitro cytotoxic effectiveness are normally in the range of 5-40 mg/dl with concentrations of 30-40 mg/dl being typical. […] Moreover, since ascorbic acid is readily cleared from the body, the tumor cytotoxic effect, if any, achieved by conventionally administered doses of ascorbic acid would be transitory at best.
The method of the present invention comprises the treatment of cancer by administering sufficient amounts of ascorbic acid to raise the concentration of ascorbic acid in the patient's plasma above a level that is cytotoxic to the cancer tumor cells. The treatment is based on the fact that tumor cells contain between 10 and 100 fold less of the enzyme catalase than normal cells. Catalase converts toxic hydrogen peroxide to non-toxic oxygen and water. This biochemical difference between normal and tumor cells provides a window of opportunity for selective toxicity. It has been known for some time that ascorbate is capable of inducing the intracellular production of hydrogen peroxide. The basis of the present invention is the discovery, through experimentation, that concentrations of ascorbate capable of inducing toxic reactions in tumor cells were achievable in vivo through intravenous infusion of large amounts of ascorbic acid in solution. […] For this reason, it is desirable to exceed the levels required for in vitro cytotoxicity in tumor cells by a wide margin. It is also advantageous to maintain the cytotoxic level of ascorbic acid in the patient's plasma for as long a period of time as is reasonably possible. To achieve such results in patients, the treatment has required intravenous administration of as much as 115 grams of ascorbic acid infused over several hours to achieve an apparently effective level of ascorbic acid. […] Continuous administration of a solution of ascorbic acid maintains the plasma levels despite the bodies ability to clear the ascorbate from the patient's system. Continuation of the treatment over multiple infusions is believed to be desirable. […] The plasma levels of ascorbic acid in patients are routinely and repeatedly monitored throughout the treatment and the amount of ascorbic acid administered is adjusted according to the individual patient's tolerance and the target level of ascorbic acid. Target levels of ascorbic acid are set according to the type of cancer afflicting the patient using in vitro studies of cytotoxicity in similar cell lines. More accurate target levels can be achieved by in vitro experimentation of malignant cells taken from the patient if such are available. A further development of the treatment of the present invention involves the direct testing of the cytotoxic effectiveness of the patient's serum. Serum is drawn during the infusion and either the patient malignant cells, if available, or similar cell lines are exposed to the patient's serum with the effects observed. This direct testing provides information that is used to adjust the amount of ascorbic acid administered to ensure that effective plasma levels have been achieved.
Since, as stated above, there is not a direct translation of in vitro to in vivo results, the level of ascorbic acid within the patient's plasma must be raised to exceed the levels required for in vitro cytotoxicity in tumor cells and maintained at that level for a significant period of time. The patient undergoes an intravenous infusion of ascorbic acid in a medically acceptable aqueous solution such as Ringer's lactate. As an example, Mr. […]

[3] = system: patient's tumor cells (metastatic colon carcinoma); assay: cells; format: cell-based; details: Homo sapiens, Colon carcinoma cell, read-out: toxic to percent of the patient's tumor cells
Protocol: (§1) 3 Mr. […] Cancer was discovered during exploratory surgery. Multiple metastases were found on the omentum, transverse and sigmoid colon, and the peritoneum. Biopsy samples from these metastases were obtained during surgery and most of the tumor mass was not removed. A cell culture line was established from the tissue biopsies, and the patient tumor cells were tested to determine the sensitivity of the tumor cells to ascorbic acid. […] A target level of plasma concentration of ascorbic acid was selected at three times the level found to be toxic to the patient's tumor cells. Intravenous ascorbate was begun and the infusion quantity and rate required to achieve and maintain the targeted plasma ascorbic acid concentration of 90 mg/dl was determined. Twenty hour infusions of ascorbate were given three times per week. After four months of therapy, a surgical ileostomy was performed due to chronic diarrhea.

[4] = safety and tolerance of ascorbic acid administration; format: in vivo, human
Text: G.; O'Fallon, J. R.; et al. Failure of High Dose Vitamin C (ascorbic acid) to Benefit Patients With Advanced Cancer: A Control Trial. N Engl. J. Med., 1979; 301:687-690 and Mortel, C. G.; Fleming, T. R.; Creagan, E. T.; , et al. High Dose of Vitamin C Versus Placebo In The Treatment of Patients With Advanced Cancer Who Have Had No Prior Chemotherapy. N Engl. J. Med., 1985; 312:137-141. Heretofore the highest dosage understood to be safely administered to a human was approximately 10-15 grams. […] The positive results are believed to have been achieved by means of increased stromal resistance to the invasiveness of the malignancies studied, although the lack of monitoring of the level of ascorbic acid present in the plasma prevents an accurate assessment.
Therefore, the in vitro results are not readily duplicated in vivo and the concentrations of ascorbic acid that are effectively toxic in vitro are not as effective, nor as easy to achieve, in test subjects.
The method of the present invention comprises the treatment of cancer by administering sufficient amounts of ascorbic acid to raise the concentration of ascorbic acid in the patient's plasma above a level that is cytotoxic to the cancer tumor cells. The treatment is based on the fact that tumor cells contain between 10 and 100 fold less of the enzyme catalase than normal cells. Catalase converts toxic hydrogen peroxide to non-toxic oxygen and water. This biochemical difference between normal and tumor cells provides a window of opportunity for selective toxicity. It has been known for some time that ascorbate is capable of inducing the intracellular production of hydrogen peroxide. […] The plasma levels of ascorbic acid in patients are routinely and repeatedly monitored throughout the treatment and the amount of ascorbic acid administered is adjusted according to the individual patient's tolerance and the target level of ascorbic acid. […]

[5] = system: metastatic colon carcinoma; assay: A person, intravenous ascorbate, metastases observed during surgery; format: in vivo, human; details: after four months of therapy
Protocol: as §1

cancer = details: high doses of ascorbic acid; two published trials; cited from earlier work
tumor cell lines = details: cited from earlier work
[6] = system: metastatic ovarian cancer; assay: A person, intravenous ascorbate, cancer antigen CA-125 level; format: in vivo, human; details: throughout intravenous ascorbate therapy, seven months
Protocol: 4 a person is a person with metastatic ovarian cancer. After six months of standard chemotherapy, a second exploratory surgery was performed, at which time metastases throughout the abdominal cavity were found. The patient was started on intravenous ascorbate infusions at the quantity and rate of flow required to maintain a plasma concentration of 80 mg/dl.

[7] = system: PC-3 human prostate tumor cells; assay: cells; format: cell-based; details: PC-3, 120 h
Protocol: (§2) 5 a person was a with metastatic prostate cancer. A baseline blood sample was drawn from the patient and the serum was separated. An intravenous infusion of 105 grams of ascorbate was performed over 5 hours. At the and of the 5 hours another blood sample was taken and again the serum was separated. The pre-infusion serum sample was assayed and found to contain an ascorbic acid concentration of 3.4 mg/dl and the post-infusion serum samples were assayed and found to contain an ascorbic acid concentration of 165 mg/dl. The cytotoxic effectiveness of both serum samples was tested against a line of human prostate tumor cells called "PC-3"from American Type Culture Collection. The PC-3 cells were plated, 3,000 cells per well in plastic 96 well tissue culture plates 24 hours before the blood was taken from the patient above. 100% and 50% (diluted with complete culture medium, DMEM) serum solutions from both samples were added to 16 wells each of the PC-3 cells which had been plated earlier. After a five day incubation, the number of surviving tumor cells in the wells containing the 100% and 50% solutions of the post-infusion serum sample was compared to the number of surviving tumor cells in the wells containing the 100% and 50% solutions of the pre-infusion serum sample and the percent survival was calculated as follows: […]

[8] = system: metastatic carcinoma of the head of the pancreas; assay: A person, intravenous ascorbate, tumor on C-T scan; format: in vivo, human; details: six months after diagnosis
Protocol: Since, as stated above, there is not a direct translation of in vitro to in vivo results, the level of ascorbic acid within the patient's plasma must be raised to exceed the levels required for in vitro cytotoxicity in tumor cells and maintained at that level for a significant period of time. The patient undergoes an intravenous infusion of ascorbic acid in a medically acceptable aqueous solution such as Ringer's lactate. As an example, whose case is described below was administered 115 grams of ascorbic acid in 1000 cc Ringer's lactate, infused over 8 hours. The infusions are continued until resolution of the patient's tumors have been evidenced. Normal diagnosis and classification of the patient's cancer can be used in conjunction with experimental results to predict the target levels of ascorbic acid for an effective treatment. More accurate target levels can be achieved by experimentation on cultured malignant cells taken from the patient if such are available. […] The plasma levels of ascorbic acid in patients are routinely and repeatedly monitored throughout the treatment and the amount of ascorbic acid administered is adjusted according to the individuals tolerance and the target level of ascorbic acid. […]

[9] = system: metastatic fibrous histiocytoma; assay: A person, intravenous ascorbate, chest x-ray; format: in vivo, human
Text: Two masses were in the left lung and one mass was in the right lung. All masses measured approximately 2 cm. in diameter.

clinical [10] = details: human, in vivo, iv
Protocol: as §2

[11] = cited from earlier work
[12] = system: intracellular adhesion molecule-1 (ICAM-1); details: cited from earlier work

O=C1O[C@H]([C@@H](O)CO)C(O)=C1O [ascorbic acid]
normal plasma levels of ascorbic acid [1]: 0.39 to 1.13 mg/dL
concentration at 1 h (clinical [2]; iv): 1580 µg/mL
concentration at 5 h (clinical [2]; iv): 1850 µg/mL
plasma concentration maintained (clinical [2]; iv): 80 mg/dL
plasma level of ascorbate achieved (clinical [2]; iv): exceeding 150 mg/dl
plasma levels of ascorbate achieved (clinical [2]; iv): 110 mg/dL
targeted plasma ascorbic acid concentration achieved and maintained (clinical [2]; iv): 90 mg/dL
levels of ascorbic acid between infusions (clinical [2]; po): found to avoid abnormally low levels of ascorbic acid between infusions
cytotoxicity at 300 µg/mL [3]: 100%
detrimental side effects ([4]; A person, 39 8 hour infusions, 57.5 to 115 grams per infusion, 13 weeks): without reported detrimental side effects
depletion of minerals and other substances ([4]; ascorbic acid infusion process): depletion of certain minerals and other substances
detrimental side effects ([4]; intravenous infusion of large amounts (as much as 115 grams over several hours)): without reported detrimental side effects
multiple metastases, size and consistency [5]: decreased significantly in size and have a flaccid consistency
benefit to patients with advanced cancer (cancer): failure of high doses of ascorbic acid to have the desired effect in the treatment of cancer
effect of exposure to plasma on cytotoxic effect (tumor cell lines; exposure to plasma): diminished, to varying degrees
concentration level of ascorbic acid required for in vitro cytotoxic effectiveness (tumor cell lines; normally in the range): 5 to 40 mg/dL
concentration level of ascorbic acid required for in vitro cytotoxic effectiveness, typical (tumor cell lines; typical concentrations): 30 to 40 mg/dL
level of cancer antigen CA-125 [6]: returned to normal and remained within normal limits
viability at 1650 µg/mL ([7]; read-out: percent tumor cell survival, post-infusion serum (165 mg/dl ascorbic acid), 50% serum, five days): 15%
viability at 1650 µg/mL ([7]; read-out: percent tumor cell survival, post-infusion serum (165 mg/dl ascorbic acid), 100% serum, five days): 19%
viability at 34 µg/mL ([7]; read-out: percent tumor cell survival, preinfusion serum (3.4 mg/dl ascorbic acid), 50% serum, five days, reference): 100%
viability at 34 µg/mL ([7]; read-out: percent tumor cell survival, preinfusion serum (3.4 mg/dl ascorbic acid), 100% serum, five days, reference): 100%
tumor seen on C-T scan [8]: no detectable tumor
right lung mass, chest x-ray ([9]; after seven months of therapy): disappeared
diameter of regressed left lung mass ([9]; after seven months, initially approximately 2 cm in diameter): about 1 cm
left lung mass which had regressed ([9]; after twelve months of therapy): completely resolved
size of the remaining left lung metastasis ([9]; after twelve months of therapy): no change
left lung mass, chest x-ray ([9]; one of the left lung masses, after seven months of therapy): decreased in size (to about 1 cm) with decreased radio-opacity
ascorbic acid concentration in serum (clinical [10]): 3.4 mg/dL
concentration at 5 h (clinical [10]): 1650 µg/mL
highest dosage understood to be safely administered to a human ([11]; human, before the invention): 10-15 grams
tumor necrosis and hemorrhage ([11]; rare cases of extreme tumor sensitivity to ascorbic acid, fatal): rare instances of wide-spread tumor necrosis and hemorrhage

hyaluronic acid
binding by ICAM-1 [12]: preferentially bound
